# In patent publication US20230242887A1, “ONCOLYTIC VIRUS CARRYING E-CADHERIN AND USES THEREOF” (Ohio State Innovation Foundation, priority 2017, published 2023):
# What was measured:
# OV-CDH1 = assay: Viral replication inhibition assay (HSV-1 genome copies by real-time PCR); assay type: cell-based; conditions: Human alphaherpesvirus 1; Gli36 cells, MOI of 5, 48 h
# Method: (§1) FIGS. 12A-12B illustrate the safety test for OV-CDH1. FIG. 12(A) illustrates that Gli36 cells were infected with OV-Q1 or OV-CDH1 at a MOI of 5. Two hours after infection, the infection media were replaced with fresh media with increasing concentrations of Acyclovir. Forty-eight hours after infection, the cells were harvested for DNA extraction. The HSV-1 genome copy numbers in OV-Q1 and OV-CDH1 infected cells were measured by real-time PCR with primers and a probe against gD. The copy number vs. dose curves were established to evaluate the inhibitory effect of Acyclovir against oHSV replication (n=3). FIG. 12(B) illustrates survival curves of BLAB/c mice treated with wild-type HSV-1 (F strain), OV-Q1 or OV-CDH1 at the dose of 1×10^6 via i.c. or i.v injections.
# (§2) OV-Q1 and OV-CDH1 both carry the HSV-1 TK gene, which makes the viruses sensitive to the antiviral acyclovir and its derivatives. […] For evaluating the in vivo safety of OV-CDH1, BALB/c mice were intravenously (i.v.) or i.c. injected with wild-type HSV-1 (F strain), OV-Q1, or OV-CDH1 at the dose of 1×10^6 PFU, which is the maximum dose due to the limited administration volume for i.c. injection. […] Mice treated with OV-Q1 and OV-CDH1 through i.v. or i.c. injections all survived over 4 weeks until they were euthanized and not monitored further (FIG. 12B). […]
# OV-Q1 = assay: as above; assay type: cell-based; conditions: Human alphaherpesvirus 1, GLI36, 48 h, read-out: IC50 of inhibition of OV-Q1 replication
# Method: as §1, §2
smiles,measurement,setting,value
Nc1nc2c(ncn2COCCO)c(=O)[nH]1 [acyclovir],IC50,OV-CDH1,2670 nM
same,IC50,OV-Q1,1670 nM
